In patent EP0202661B1, “Isolation of castanospermine and its use as an antidiabetic agent” (MERRELL DOW PHARMACEUTICALS INC., priority 1985, dated 1986):

How the values were obtained:
[1] = test system: Sucrose-Administered Mice; assay: Inhibitory action against increase of blood glucose in sucrose-administered mice; assay type: in vivo, Male ICR-swiss mice; details: for Blood Glucose Concentration (mg%) at 30 Min. After Sucrose: fasted mice, sucrose control (0 mg/kg) 205, blank 107
Description: Inhibitory Action Against Increase of Blood Glucose in Sucrose-Administered Mice
Male ICR-swiss mice with body weight of 25-35 g were fasted overnight. Sucrose was administered orally by gavage at a dose of 2 g/kg 15 minutes after the similar administration of castanospermine at doses of 0.125 to 60 mg/kg. Animals were sacrificed at 30 minutes after sucrose administration and blood glucose levels were measured by a method using glucose dehydrogenase. […]

[2] = test system: Starch-Administrated Mice; assay: Inhibitory action against increase of blood glucose in starch-administered mice; assay type: in vivo, Male ICR-Swiss mice; details: for Blood Glucose Concentration (mg%) at 45 min. After Starch: fasted mice, starch control (0 mg/kg) 126, blank 72
Description: Inhibitory Action Against Increase of Blood Glucose in Starch-Administrated Mice
Male ICR-Swiss mice with body weight of 25-35 g were fasted overnight. Starch was administered orally by gavage at a dose of 1 g/kg 15 minutes after the similar administration of castanospermine at doses of 1.9 to 60 mg/kg. Animals were sacrificed at 45 minutes after starch administration and blood glucose levels were measured by a method using glucose dehydrogenase. […]

[3] = test system: intestinal glycosidases (i.e., maltase and sucrase); details: rats, cited from earlier work

## O[C@H]1[C@H](O)[C@@H](O)CN2CC[C@H](O)[C@H]12 [Castanospermine, (1S,6S,7R,8R,8aR)-1,6,7,8-tetrahydroxyindolizidine]
[1]; Mus musculus, 0.5 h, oral gavage 15 min before sucrose 2 g/kg, blood glucose 30 min after sucrose, read-out: dose at which the increase in glucose in the blood could be significantly inhibited
  minimal effective dose: ≥ 0.125 mg/kg
[1]; castanospermine 0.125 mg/kg oral gavage 15 min before sucrose 2 g/kg
  Blood Glucose Concentration (mg%) at 30 Min. After Sucrose: 159 mg%
[1]; castanospermine 0.25 mg/kg oral gavage 15 min before sucrose 2 g/kg
  Blood Glucose Concentration (mg%) at 30 Min. After Sucrose: 167 mg%
[1]; castanospermine 0.5 mg/kg oral gavage 15 min before sucrose 2 g/kg
  Blood Glucose Concentration (mg%) at 30 Min. After Sucrose: 153 mg%
[1]; castanospermine 1.0 mg/kg oral gavage 15 min before sucrose 2 g/kg
  Blood Glucose Concentration (mg%) at 30 Min. After Sucrose: 146 mg%
[1]; castanospermine 2.0 mg/kg oral gavage 15 min before sucrose 2 g/kg
  Blood Glucose Concentration (mg%) at 30 Min. After Sucrose: 116 mg%
[2]; Mus musculus, 0.75 h, oral gavage 15 min before starch 1 g/kg, blood glucose 45 min after starch, read-out: dose at which the increase in glucose in the blood could be significantly inhibited
  minimal effective dose: ≥ 3.8 mg/kg
[2]; castanospermine 1.9 mg/kg oral gavage 15 min before starch 1 g/kg
  Blood Glucose Concentration (mg%) at 45 min. After Starch: 139 mg%
[2]; castanospermine 3.8 mg/kg oral gavage 15 min before starch 1 g/kg
  Blood Glucose Concentration (mg%) at 45 min. After Starch: 83 mg%
[2]; castanospermine 7.5 mg/kg oral gavage 15 min before starch 1 g/kg
  Blood Glucose Concentration (mg%) at 45 min. After Starch: 85 mg%
[3]; administered by injection, Saul et al., Proc. Nat'l. Acad. Sci. USA, 82, 93 (1985)
  inhibition of intestinal glycosidases (i.e., maltase and sucrase): inhibits intestinal glycosidases
[3]; high doses administered by injection, Saul et al. (1985)
  adverse observations at high doses: diarrhea and high levels of intestinal bacterial flora were observed
